Series [1] relates to membrane testosterone receptors in LNCaP cells. Briefly: Displacement binding of [3H]testosterone on LNCaP cell membranes. Conditions: 5 nM [3H]testosterone, competitor 10^-12-10^-6 M. Details: species or system human. The protocol: (§1) Cells, cultured in 150 cm^2 flasks without serum, were washed twice with phosphate-buffered saline (PBS), removed by scraping and centrifuged at 1500 rpm. Pelleted cells were homogenized by sonication in 50 mM Tris-HCl buffer pH 7.4 containing freshly added protease inhibitors (10 μg/ml PMSF and 1 μg/ml aprotinin). Unbroken cells were removed by centrifugation at 2500 g for 15 min. Membranes were obtained by centrifugation at 45,000 g for 1 hour, and washed once by the same buffer. Protein concentration was measured by the method of Bradford.
(§2) Saturation binding experiments were performed in a final volume of 0.1 ml, containing cell membranes at a final protein concentration of 2 mg/ml and at least 6 different concentrations of [^3H]testosterone (ranging 2-50 nM) without (total binding) or with (non-specific binding) a 100-fold molar excess of unlabelled androgen (DHT). […] In both types of binding experiments, after an overnight incubation at 4° C., bound radioactivity was separated by filtration under reduced pressure through GF/B filters previously soaked in 0.5% polyethylenimine (PEI) in water and rinsed three times with ice-cold Tris-HCl buffer. Filters were mixed with 4 ml scintillation cocktail and the bound radioactivity was counted in a scintillation counter (Tricarb, Series 4000, Packard) with 60% efficiency for Tritium. […]

For series [2] the test system is unchanged. In words: Flow cytometry detection of membrane binding on LNCaP cells. Details: species or system human. Conditions: 10^-7 M. The protocol: LNCaP cells, cultured in serum free medium for 24 hrs, were detached from the culture flask by scraping and suspended in PBS at a density of 10^6 cells/ml. They were incubated at room temperature with 10^−7 M testosterone-BSA-FITC conjugate for different periods of time (1 min to 1 hour). A thousand-fold BSA-FITC was used to determine non-specific binding. Cells were analysed by flow cytometry using a Coulter Epics L-MCL apparatus (Beckman-Coulter Inc. Foullerton Calif., USA) in a sample size of 10,000 cells gated on the basis of forward and side scatter. Testosterone3-(O-carboxymethyl)oxime-BSA-FITC (named testosterone-BSA-FITC), testosterone3-(O-carboxymethyl)oxime-BSA (named testosterone-BSA), estradiol6-(O-carboxymethyl)oxime-BSA-FITC (named estradiol-BSA-FITC), progesterone3-(O-carboxymethyl)oxime-BSA-FITC (named progesterone-BSA-FITC) and BSA-FITC were obtained from Sigma (St Louis, Mo.).
(§3) The presence of membrane testosterone receptors was equally identified using the testosterone analog testosterone3-(O-carboxymethyl)oxime-BSA-FITC, obtained from Sigma (St Louis, Mo.). This analog is not capable to penetrate the cells, because of a covalent attachment of the steroid with BSA. […] The membrane binding was equally verified by confocal laser microscopy, as shown in the right panel of FIG. 2.
On the technique in general: A flow cytometer gives signals particle by particle.

Another series relates to LNCaP cells. Briefly: Confocal laser microscopy of membrane binding on LNCaP cells. It counts as cell-based, human. Conditions: 30 min incubation. The protocol:
LNCaP cells were allowed to grow on poly-L-lysine coated glass coverslips for at least 48 hours before culture medium was replaced with serum free medium. After a 24-hour period, cells were washed twice with PBS and incubated with Testosterone-BSA-FITC for 30 min in the presence or in the absence of DHT. As a negative control BSA-FITC was used. Cells were then washed twice with PBS and fixed with 2% PFA in PBS for 30 min. Coverslips were mounted on to slides using a 1:1 (v/v) mixture of glycerol and Vestashield (Vector, Burlingame, Calif.). Specimens were analysed using a confocal laser scanning microscope (CLSM) (Leica TCS-NT, Lasertechnik, Heidelberg, Germany).
as §3

Series [3] has as its system actin cytoskeleton of LNCaP human prostate cancer cells. In words: Determination of monomeric and polymerized actin. It counts as cell-based. Conditions: 10^-7 M, 10 min. The protocol: For measurements of the monomeric (Triton soluble) and polymerized (Triton insoluble) actin, LNCaP cells were incubated for 10 min with or without DHT or testosterone-BSA (10^−7 M). Then, 500 μl of Triton-extraction buffer (0.3% TritonX-100, 5 mM Tris, pH 7.4, 2 mM EGTA, 300 mM sucrose, 2 μM phalloidin, 1 mM PMSF, 10 μg/ml leupeptin, 20 μg/ml aprotinin, 1 mM sodium orthovanadate, and 50 mM NaF) were added, and the mixture was incubated for 5 minutes on ice. After removing the buffer, soluble proteins were precipitated with equal volumes of 6% PCA. The Triton-insoluble fraction remaining on the plate was precipitated with 1 ml of 3% PCA. Equal volumes of each fraction were subjected to SDS-polyacrylamide gel electrophoresis (SDS-PAGE). The resulting protein-bands were transferred onto nitrocellulose membrane, and the membrane was blocked with 5% nonfat dry milk in TBS-T (20 mM Tris pH 7.6, 137 mM NaCl, 0.05% Tween-20) for 1 h at room temperature. Antibody solutions (in TBS-T) were added for 1 h at room temperature [monoclonal mouse anti-actin first antibody (Amersham-Pharmacia, Bukinghamshire, UK) and second horseradish peroxidase-coupled antibody (Chemicon, Temecula, Calif.)]. Blots were developed using the ECL system (Amersham-Pharmacia, Bukinghamshire, UK) and the band intensities were quantified by PC-based image analysis (Image Analysis Inc., Ontario, Canada). […]

Series [4] concerns prostate cancer LNCaP cells. In words: Cell number by tetrazolium salt assay. The format is cell-based, human. Conditions: 24 hours. The protocol: The human prostate cancer LNCaP cell line, originally isolated from a lymph node metastasis of prostate adenocarcinoma, was purchased from DSMZ (Braunschweig, Germany). Cells were cultured in RPMI 1640 medium supplemented with 10% heat inactivated fetal bovine serum (FBS) at 37° C. in a humidified atmosphere of 5% CO2 in air. They were subcultured once a week and incubated in serum-free medium for 24 h before any experiment. All culture media were purchased from Gibco BRL (Life Technologies, Paisley, UK).
Cell number was assayed using the tetrazolium salt assay. Cells were incubated for 3 h at 37° C. with the tetrazolium salt (3-(4,5 dimethylthiazol-2-yl)-2,5 diphenyl tetrazolium bromide, Sigma, St Louis, Mo.). Living cells reduced the dye to purple formazan seen as dark blue crystals. At the end of the incubation period they were dissolved with propanol-1 and the absorbance was measure at 575 nm, within one hour.
In view of the above results, we incubated prostate cancer LNCaP cells with testosterone-BSA alone (10^−7 M) or together with Taxol® (10^−8 M) for 24 hours. […] In addition, a potentiation of the action of Taxol® by ˜7% was also found. […]

In series [5] the test system is LNCaP tumors in nude mice. Briefly: In vivo effect in nude mice bearing implanted LNCaP tumors. Conditions: four weeks. As for the experimental part:
FIG. 9 presents the effect of testosterone-BSA administration in nude mice, bearing implanted tumors. Arrows show the injection times of testosterone-BSA (500 μl of a 5×10^−6 M solution) with or without addition of 10 mg/kg Taxol®.
Nude mice were injected in the back with 5×10^6 LNCaP cells diluted in Matrigel® (Sigma, St Louis, Mo.) in a total volume of 0.1 ml. After 4 weeks, macroscopical tumors were developed, and treatment was initiated, as follows: Drugs, diluted in PBS were injected intraperitoneally 3 times per week, in a total volume of 0.5 ml. Animals were divided in four groups: The first group received 5×10^−6 M BSA. The second group was injected with 5×10^−6 M testosterone-BSA conjugate. The third group was injected with 10 mg/ml Taxol®, while in the fourth group a combination of testosterone-BSA and Taxol® was introduced. Tumors were measured after four weeks of treatment. Tumors were excised, measured, weighted and send to a pathologist for further analysis.
As presented in FIG. 9, testosterone-BSA induced a time-dependent decrease in tumor mass by 53%. Addition of Taxol® produces a dramatic decrease of tumor weight by 77%. […] Therefore it is possible that the decrease if tumor mass could be greater for longer periods of treatment In addition, apoptosis was observed histologically in all tumors studied.

Series [6] relates to membrane testosterone receptors in LNCaP cells. In words: Saturation binding of [3H]testosterone to LNCaP cell membranes. The arrangement: species or system human. Conditions: [3H]testosterone 2-50 nM, LNCaP membranes 2 mg/ml, overnight 4° C., non-specific binding with excess DHT; read-out: KD (Scatchard analysis). As for the experimental part: as §1, §2
The subject of series [7] is FAK→PI-3 kinase→Cdc42/Rac1→actin reorganization in LNCaP cells. Briefly: Signalling FAK, PI-3 kinase, Cdc42/Rac1, actin reorganization (immunoprecipitation, kinase assays, affinity precipitation). It counts as cell-based, human. As for the experimental part:
Testosterone-BSA or DHT-treated, as well as untreated (control) cells were washed three times with ice-cold PBS and suspended in cold lysis buffer containing 1% Nonidet P-40, 20 mM Tris pH 7.4 and 137 mM NaCl, supplemented with protease and phosphatase inhibitors. Cleared lysates were preadsorbed with protein A-Sepharose for 1 h at 4° C., centrifuged and the supernatants (equal amounts of protein) were subjected to immunoprecipitation using the indicated antibodies and the protein A-Sepharose beads.
The lipid kinase activity of PI-3 kinase was measured by the method of Auger et al with minor modifications. Protein A-Sepharose beads containing immunoprecipitated phosphotyrosine proteins were washed three times with Buffer A (20 mM Tris pH 7.4, 137 mM NaCl, 1 mM CaCl2, 1 mM MgCl2, 1% Nonidet P-40, 0.1 mM Na3VO4), three times with 5 mM LiCl in 0.1 M Tris (pH 7.4) and twice with TNE (10 mM Tris pH 7.4, 150 mM NaCl, 5 mM EDTA, 0.1 mM Na3VO4). […]
For immunoblot analysis, the cell lysates or the immunoprecipitates were suspended in Laemmli's sample buffer and separated by SDS-PAGE. […] Blots were developed using the ECL system and the band intensities were quantified by PC-based image analysis (Image Analysis Inc., Ontario, Canada). […]

As usually defined, the Kd is the equilibrium constant for the complex coming apart.

In the case of `CC(=O)[C@H]1CC[C@H]2[C@@H]3CCC4=CC(=O)CC[C@]4(C)[C@H]3CC[C@]12C` [progesterone], in series [1] (compared with DHT), the “lower affinity in displacing radiolabelled testosterone (fold)” value is listed as 10^2 fold.

For the compound “testosterone3-(O-carboxymethyl)oxime-BSA [testosterone-BSA]”, in series [2] (flow cytometry), the “time at which association with membrane receptors was observed” value is recorded as 1 min. In series [2] (flow cytometry, unchanged after 30 min), the “time at which association with membrane receptors was maximal” value is recorded as 10 min. Besides, the “membrane binding by flow cytometry” value in series [2] (room temperature) is on record as “specific membrane binding”. Moreover, the “localisation of staining (internalization)” value in the series with LNCaP cells is on record as “only membrane staining was found”. Further, in series [3], the “ratio of soluble (monomeric) to insoluble (polymerised) actin” value is on record as “significant decrease”. Besides, the “potentiation of the action of Taxol®” value in series [4] (testosterone-BSA 10^-7 M together with Taxol® 10^-8 M) is listed as ~7%. For the same compound, the decrease of cells in series [4] (testosterone-BSA alone 10^-7 M) worked out at 50%. Further, the “decrease in tumor mass” value in series [5] (nude mice with LNCaP tumors, testosterone-BSA 5×10^-6 M i.p. 3 times per week) is given as 53%. For the same compound, in series [5] (nude mice with LNCaP tumors, testosterone-BSA 5×10^-6 M with addition of Taxol®, i.p. 3 times per week), the “decrease of tumor weight” value is listed as 77%. Moreover, the tolerance of treatment result in series [5] (nude mice, 0.5 ml of 5×10^-6 M intraperitoneally 3 times per week) is on record as “supported very well”.

As for `C[C@]12CCC(=O)C[C@@H]1CC[C@@H]1[C@@H]2CC[C@]2(C)[C@@H](O)CC[C@@H]12` [DHT], the “displacement of radiolabeled testosterone” value in series [1] is recorded as “produced a displacement of radiolabeled testosterone”.

On to `C[C@]12CC[C@H]3[C@@H](CCC4=CC(=O)CC[C@@]43C)[C@@H]1CC[C@@H]2O` [testosterone], for which the Kd in series [6] worked out at 0.0109 µM. For the same compound, in series [7], the “activation of signalling cascade FAK→PI-3 kinase→Cdc42/Rac1→actin reorganization” value is “less active than testosterone-BSA conjugate”.

Values taken from patent US7358379B2, “Steroid conjugates, preparation thereof and the use thereof” (Bionature E.A. Limited, priority 2002, dated 2008).
